Results taken from US20260285802A1, “MODULATORS OF SORTILIN ACTIVITY” (priority 2023, published 2026).

Target: T1, Human (6-His) Sortilin (Homo sapiens, UniProt Q99523)
T1 sequence (Q99523 78-831): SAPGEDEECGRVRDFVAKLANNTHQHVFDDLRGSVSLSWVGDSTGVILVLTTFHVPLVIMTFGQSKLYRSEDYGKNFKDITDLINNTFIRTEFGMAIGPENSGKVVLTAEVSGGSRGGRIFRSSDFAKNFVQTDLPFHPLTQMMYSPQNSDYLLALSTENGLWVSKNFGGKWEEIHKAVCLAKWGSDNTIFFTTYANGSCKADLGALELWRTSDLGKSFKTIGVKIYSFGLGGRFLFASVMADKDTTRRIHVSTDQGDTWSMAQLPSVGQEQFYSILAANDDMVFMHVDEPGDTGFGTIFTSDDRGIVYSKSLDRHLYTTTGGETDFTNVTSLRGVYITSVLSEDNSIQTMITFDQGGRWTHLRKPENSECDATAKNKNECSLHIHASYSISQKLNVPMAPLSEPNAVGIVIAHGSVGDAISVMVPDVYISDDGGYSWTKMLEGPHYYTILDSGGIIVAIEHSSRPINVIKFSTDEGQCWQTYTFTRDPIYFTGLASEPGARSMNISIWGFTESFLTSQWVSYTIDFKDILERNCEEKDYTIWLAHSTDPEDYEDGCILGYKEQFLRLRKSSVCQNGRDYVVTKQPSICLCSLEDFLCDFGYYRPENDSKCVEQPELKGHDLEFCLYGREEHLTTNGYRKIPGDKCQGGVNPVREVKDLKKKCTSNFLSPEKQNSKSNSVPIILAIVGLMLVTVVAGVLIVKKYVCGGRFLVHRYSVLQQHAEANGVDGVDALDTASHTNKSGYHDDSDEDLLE
Assay: biochemical

SMILES	Kd
Cc1nc(N[C@@H](CCC(C)(C)C)C(=O)O)c2ccccc2n1 [Example 118, (S)-5,5-Dimethyl-2-((2-methylquinazolin-4-yl)amino)hexanoic acid]	18 nM
CC(C)CC(Nc1ccccc1)c1nnn[nH]1 (racemic) [Example 67, [3-methyl-1-(2H-tetraazol-5-yl)butyl]aniline]	111000 nM
COc1ccc2c(NC(CCC(C)(C)C)c3nnn[nH]3)ncnc2c1 (racemic) [Example 85, [4,4-dimethyl-1-(2H-tetraazol-5-yl)pentyl](7-methoxy-4-quinazolinyl)amine]	91.3 nM
Cc1nc(NC(CCC(C)(C)C)c2nnn[nH]2)c2ccccc2n1 (racemic) [Example 89, [4,4-dimethyl-1-(2H-tetraazol-5-yl)pentyl](2-methyl-4-quinazolinyl)amine]	85.7 nM
CC(C)(C)CCC(Nc1ccccc1)c1nnn[nH]1 (racemic) [Example 39, N-phenyl[4,4-dimethyl-1-(2H-tetraazol-5-yl)pentyl]amine]	2840 nM
CC(C)(C)CCC(Nc1ncnc2cc(C(F)(F)F)ccc12)c1nnn[nH]1 (racemic) [Example 87, [4,4-dimethyl-1-(2H-tetraazol-5-yl)pentyl][7-(trifluoromethyl)-4-quinazolinyl]amine]	351 nM
CC(C)(C)CC[C@H](Nc1nc(C2CC2)nc2ccccc12)C(=O)O [Example 119, (S)-2-((2-Cyclopropylquinazolin-4-yl)amino)-5,5-dimethylhexanoic acid]	14 nM
CC(C)CC(Nc1cccnc1)c1nnn[nH]1 (racemic) [Example 63, [3-methyl-1-(2H-tetraazol-5-yl)butyl]-3-pyridylamine]	47300 nM
